System: CYP26B1
Assay: CYP26B1 mRNA expression in neuroblastoma cells, real-time PCR
Assay type: cell-based, human
Settings: 24 h
Experimental: SH-SY5Y, SH-EP (N- and S-type cells respectively derived from the parental line SK-N-SH), LAN6, IMR-32, NGP and GIMEN neuroblastoma cell lines were cultured routinely in RPMI 1640 medium containing fetal calf serum (10%) and L-glutamine (2 mM). Cells were grown at 37°C in a humidified incubator containing 5% CO2.
13-cis-Retinoic acid and ATRA were dissolved in DMSO and diluted in cell culture medium to obtain final concentrations of 0.1–10 μM. The final concentration of DMSO in all cases was <0.2%. All experiments were performed in dim light and tubes containing retinoids were wrapped in aluminium foil.
CYP26 short hairpin RNAs (shRNAs) were generated using the siSTRIKE U6 Hairpin Cloning System (Promega, Southampton, UK). The CYP26A1, B1 and Ctrl siRNA sequences were designed using Promega software. The cDNA target sequences were CYP26A1 5′-gcgcatcgagcagaacatt; CYP26B1 5′-gtcgcggagggagaagtat; and Ctrl 5′-gccccgcaattgagaaatg. Sense and antisense strands were annealed and ligated into the linearised psiSTRIKE Neomycin Vector. SH-SY5Y cells were transfected with psi-CYP26A1 or psi-CYP26B1 either singly or in combination, or with psi-Ctrl, in six-well plates (1 μg each) or 75 cm^2 flasks (8.9 μg each) using FuGENE 6 reagent (Roche, Lewes, UK) according to the manufacturer's instructions. After a 6 h transfection, cells were treated with ATRA for 40 h and harvested for RNA isolation and HPLC analysis.
RNA was reverse-transcribed using Promega's Reverse Transcription System according to the manufacturer's instructions, using random hexamer primers. […] As internal standard, β-actin was measured simultaneously using the endogenous control assay provided by Applied Biosystems. […] Standard curves were generated from serial dilutions of cDNA prepared from cells treated with ATRA (1 μM) and the data were analysed using the GeneAmp Sequence Detection System software. CYP26C1 expression was analysed as described previously ([Taimi et al, 2004]).

Structure (SMILES)	CYP26B1 induction (0.1 μM retinoid, panel of neuroblastoma cell lines, relative to SH-SY5Y cells treated with 0.01 μM ATRA)	Effect on CYP26B1 expression, R116010 alone (SH-SY5Y cells, R116010 1 μM alone)	Effect on CYP26B1 expression, co-incubation with retinoid (SH-SY5Y cells, R116010 1 μM with ATRA or 13cisRA (0.01, 0.1 μM) vs retinoid alone)
CC1=C(/C=C/C(C)=C/C=C/C(C)=C/C(=O)O)C(C)(C)CCC1 [ATRA, all-trans-retinoic acid]	induced in all cell lines examined, except IMR-32		
C[C@@H]([C@H](c1ccc(Nc2nc3ccccc3s2)cc1)n1ccnc1)N(C)C [R116010]		no effect	significantly increased

From PMC2359919, “Molecular targeting of retinoic acid metabolism in neuroblastoma: the role of the CYP26 inhibitor R116010 in vitro and in vivo” (British Journal of Cancer, 2007)
